Patent publication US8160709B2, “Use of electrical stimulation of the lower esophageal sphincter to modulate lower esophageal sphincter pressure” (Endostim, Inc., priority 2006, dated 2012)
Entries after “also recorded” stand apart in the source; their conditions may differ. Marks after values point to notes of the source that are not given here.

Test system: lower esophageal sphincter
Assay: Lower esophageal sphincter pressure recording during NGES in anesthetized dogs, after L-NAME and atropine
Format: in vivo
Protocol: All recordings were performed one hour after consumption of three ounces of canned dog food to prevent fluctuations in lower esophageal sphincter pressure, and under mild sedation (acepromazine 0.5 mg/kg). During electrical stimulation days, tests consisted of three periods of 20 minutes each: […] Electrical stimulation was delivered using an external pulse generator. […] Area under the curve (“AUC”) and pressure were compared among the three periods. Data are shown as mean±SD, ANOVA and t-test, p<0.05. Three female mongrel dogs underwent continuous recording of lower esophageal sphincter pressure under anesthesia. NGES was delivered to the lower esophageal sphincter for 10 minutes at: […] Changes in lower esophageal sphincter pressure during NGES are presented as percent change from preceding baseline. Results (FIG. 6) are presented as mean±SD.

[1] = LES pressure during NGES, percent change from preceding baseline, L-NAME 50 mg/kg, atropine 0.05 mg/kg in presence of L-NAME, mean (SD)
[2] = during NGES, L-NAME 50 mg/kg, atropine 0.05 mg/kg in presence of L-NAME, mean (SD)
[3] = in words, anesthetized dogs, L-NAME 50 mg/kg, atropine 0.05 mg/kg in presence of L-NAME
[4] = in words, anesthetized dogs, L-NAME 50 mg/kg, atropine 0.05 mg/kg in presence of L-NAME, listed as atropine

## COC(=O)[C@@H](N)CCCNC(=N)N[N+](=O)[O-] [L-NAME]
[1]
  Initial Peak (% change): 76 (48.6) % change
  Relaxation (% change): 28.2 (34.1)** % change
Anesthetized female mongrel dogs, L-NAME infusion 50 mg/kg, atropine 0.05 mg/kg in the presence of L-NAME, mean (SD)
  Lower Esophageal Sphincter Pressure Baseline: 35.7 (5.1)* mmHg
[2]
  Peak Duration: 6.7 (3.9) sec
  Relaxation Duration: 4.4 (3.8) sec
In words, anesthetized dogs, L-NAME 50 mg/kg
  Effect on lower esophageal sphincter relaxation phase following NGES: markedly diminished or abolished; also recorded: markedly suppressed
[3]
  Effect on (baseline) lower esophageal sphincter pressure: increased
  Effect on initial rise in lower esophageal sphincter pressure induced by NGES: augmented; also recorded: enhanced

## CN1[C@@H]2CC[C@H]1C[C@@H](OC(=O)C(CO)c1ccccc1)C2 (stereo partly drawn) [Atropine, atropine]
[3]
  Effect on (baseline) lower esophageal sphincter pressure: lowered
  Effect on initial rise in lower esophageal sphincter pressure induced by NGES: abolished
[4]
  Effect on (baseline) lower esophageal sphincter pressure: reduced
  Effect on initial rise in lower esophageal sphincter pressure induced by NGES: reduced
